Test results taken from PMC12040169 (PLOS Biology, 2025).

assay: in vitro; details: human, hela cells, % viability

SMILES	viability at 28.5 h, 10 µM
COc1cccc(CNC(=O)Cn2nnc(-c3ccc(CN4CCC(C)CC4)cc3)n2)c1OC [CBK144161C]	94.1%
CCOC(=O)C1CCCN1Cc1ccccc1 (stereo not shown) [CBK278278G]	95%
FC(F)(F)c1cccc(-c2nccnc2NCc2ccc3c(c2)OCO3)c1 [CBK037350]	94.2%
COC(=O)CN1C(=O)S/C(=C/c2cc(C)n(-c3ccc4ncccc4c3)c2C)C1=O [CBK265275]	121%
COc1cc(-c2cn3ccnc3c(N3CCN(c4ccncc4)CC3)n2)cc(OC)c1OC [CBK037896]	86.6%
O=C(NC1CC1)c1ccc(-n2cccn2)c(C#Cc2ccccn2)c1 [CBK282272]	106%
COc1ccccc1Nc1nc(N)nc(CN2CCc3ccccc3C2)n1 [CBK266635]	95.1%
OCc1ccc(CN2C[C@H](O)C[C@H]2c2nc(-c3cnccn3)no2)o1 [CBK288832]	91.9%
COc1ccc(Cl)cc1N1CCN(CCCn2c(=O)[nH]c3ccccc32)CC1 [CBK138338]	95.7%
CCn1cc(CN2CCCN(C(=O)c3cc(Cl)c[nH]3)CC2)cn1 [CBK306153]	90.6%
CC(C)(CO)CNC(=O)c1cnc(-c2ccccc2)c(-c2ccncc2)c1 [CBK036734]	111%
N#Cc1c(SCC(=O)N2CCc3ccccc3C2)nsc1SCC(=O)N1CCc2ccccc2C1 [CBK267453]	93.6%
c1ccc(OCCN2CCC(Oc3cncc(OCCN4CCOCC4)n3)C2)cc1 (stereo not shown) [CBK084499]	113%
COc1ccc(C2=C(Nc3ccc(C(=O)NCc4cccnc4)cc3)c3ccccc3C2=O)cc1 [CBK263809]	89.1%
O=C(c1ccc2nccnc2c1)N1CCN(c2ccccc2)CC1 [CBK200209]	92.9%
Cc1cc(Oc2ccccc2)nc(NCc2ccccc2)n1 [CBK003557]	99.1%
COc1ccccc1Cc1noc(COc2cccc(C)c2C)n1 [CBK265521]	99.9%
CS(=O)(=O)Nc1cc2ccccc2c(-c2ccncc2)n1 [CBK085746]	92%
CC(C)(O)C#Cc1ccc(C(=O)N2CCN(C/C=C/c3ccccc3)CC2)s1 [CBK267007]	99.5%
COc1c(Br)cc(/C=C2\SC(=O)NC2=O)cc1Br [CBK102455]	101%
COc1ccc(C(=O)O)cc1S(=O)(=O)N1CCCCCC1 [CBK261742]	99.2%
COc1cc(CNc2nc(Br)cn3ccnc23)cc(OC)c1OC [CBK038060]	110%
CCSc1nc2ccccc2n1CC(=O)O [CBK262059]	87.7%

SMILES	viability at 28.5 h, 10 µM
C[C@@H](Nc1cncc(-c2cccc3ccccc23)n1)c1ccccc1 [CBK065646]	93.4%
O=C(C1CC2C=CC1C21CC1)N1CCC(Oc2cccnc2)CC1 (stereo not shown) [CBK281501]	101%
C=CCN1C(=O)C2(CC(=O)N(CC(=O)N(C)C)C2=O)c2cc(OC)ccc21 (stereo not shown) [CBK075227]	92.3%
O=C(Nc1ccc2ccccc2c1)c1ccccc1N(Cc1ccccc1)S(=O)(=O)c1ccccc1 [CBK263751]	91.5%
COCCCNC(=O)Cn1c(-c2cccs2)cc2cccnc21 [CBK282559]	87.2%
COc1ccc2[nH]cc(CC(=O)Nc3nc4c(OC)cccc4s3)c2c1 [CBK149279]	97.8%
COc1cc(F)cc(OC2CCNCC2)c1NC(=O)C1(c2ccccc2)CCCCC1 [CBK050241T]	107%
O=C(Nc1cccnc1)c1c(O)n(Cc2ccccc2)c2ccccc2c1=O [CBK291206]	110%
O=C(NCc1ccc(C(F)(F)F)cc1)[C@@H]1Cc2[nH]cnc2CN1C1CCOCC1 [CBK288981]	103%
CC(C)(C)OC(=O)NCCNCc1ccccc1Br [CBK056693]	92.1%
Cc1ccc(-c2nnc(COC(=O)c3c4c(nc5ccccc35)CCCC4)o2)cc1 [CBK269728]	105%
CN(C(=O)c1ccccc1C(=O)O)C1CC(C)(C)NC(C)(C)C1 [CBK287117]	98.2%
CC1(C)Cc2c(sc(NC(=O)c3ccccc3Cl)c2C(=O)O)CO1 [CBK126806]	99.4%
CC(C)OCC(O)C[S+]([O-])Cc1ccccc1 (stereo not shown) [CBK261761]	93.4%
COCC(=O)NC1CCN(CC2(c3cccc(F)c3)CCCC2)CC1 [CBK282546]	108%
O=C(NCCO)Nc1ccc2nccnc2c1 [CBK027577]	71.5%
Cc1c(NC(=O)c2ccc([N+](=O)[O-])o2)cccc1-c1nc2ccccc2s1 [CBK263051]	85.6%
COc1ccc(-c2nc3c(n2O)CCc2c-3no[n+]2[O-])cc1OC [CBK262350]	80.3%
CC(=O)N1C[C@@H](c2cccc(C)c2)[C@@H]2CN(Cc3cccnc3)CC[C@@H]21 [CBK283368]	89.7%
COc1c(I)cc(Br)cc1/C=N/NC(=O)CC#N [CBK025764]	91.8%
Clc1ccc(Cn2ncc3c(NCCN4CCOCC4)ncnc32)cc1 [CBK266230]	105%
CCNc1n[nH]c(N)c1-c1nc(-c2ccc(OC)cc2)no1 [CBK288557]	94.2%
O=C1CCc2cc(S(=O)(=O)Nc3ccccc3Cc3ccccc3)ccc2N1 [CBK286369]	87%

SMILES	viability at 28.5 h, 10 µM
COCOc1ccc(-c2nc(-c3cccs3)cnc2N)cc1 [CBK063977]	101%
CCn1nc(C)c(-c2cncn2Cc2ccccc2CN(C)C)c1C [CBK281998]	88.1%
O=C(Nc1cccc(N2CCNCC2)c1)c1coc2c1C(=O)CCC2 [CBK034113T]	87.2%
CC1CCN(S(=O)(=O)c2ccc(S(=O)(=O)Nc3ncnn3C)cc2)CC1 [CBK306470]	92.3%
Cc1[nH]c2ccc(CNC(=O)Cn3ccnc3C(C)C)cc2c1C [CBK281540]	87.6%
CCNc1cc2ccccc2c(-c2ccc(OC)c(C)c2)n1 [CBK089644]	86%
CC12CN3CC(C)(CN(C1)C3c1cccc([N+](=O)[O-])c1)C2=O (stereo not shown) [CBK009030]	88.9%
CC1(C)CN(c2ccc(Cl)cn2)C1=O [CBK018550]	93.6%
Cn1c(C(O)c2ccccc2)n[nH]c1=S (stereo not shown) [CBK012984]	117%
O=C(Nc1ccc(Cl)c(Cl)c1)Nc1ccccc1C(=O)O [CBK263344]	82%
Cc1cc(NCc2ccc(C(C)C)cc2)c2ccccc2n1 [CBK122786]	91.7%
Cc1cc(O)ccc1Nc1cc(-c2ccccc2N(C)C)ncn1 [CBK091051]	104%
Cc1cccc(OCCn2cncc2-c2cn(C)nc2C)c1C [CBK281458]	112%
[O-][n+]1c2c([n+]([O-])c3c1CCCC3)CCCCC2 [CBK263586]	95.5%
Clc1ccc(OCc2ccccc2)c(CNCc2ccccn2)c1 [CBK269850C]	91.2%
O=C(c1cccnc1)N1C2CCC1CC(c1ccc(F)cc1)C2 (stereo not shown) [CBK283762]	98.3%
Cn1cc(CN(C(=O)c2nc(N)nc3c2CCCC3)C2CC2)cn1 [CBK307352]	90.1%
CC(C)CC(NC(=O)Cc1cccc(O)c1)c1ncnn1C (stereo not shown) [CBK307050]	105%
Cc1cn([C@H]2C[C@@H](O)[C@@H](CO)O2)c(=O)nc1N [CBK201307]	100%
Cc1ncsc1C(=O)N1CCN(Cc2ccco2)C[C@@H]1C(C)C [CBK285486]	101%
CN(C)Cc1ccccc1-n1ncc(-c2ccc(Br)cc2F)n1 [CBK112924]	90.9%
O=C(c1ccccc1F)N1CCCC1Cn1c(=O)oc2ccccc21 (stereo not shown) [CBK282926]	97.5%
O=S(=O)(O)CCCSc1nc2ccccc2s1 [CBK260900N]	100%

SMILES	viability at 28.5 h, 10 µM
O=C(Cc1ccccc1)N1CCN(S(=O)(=O)N2CCCCC2)CC1 [CBK269097]	85.2%
CCCc1ccc(S(=O)(=O)N2CCN(CC(=O)Nc3cc(C(C)C)no3)CC2)cc1 [CBK295629]	114%
O=C(C1CCCC1)N1CCC(c2nnc(-c3ccsc3)o2)CC1 [CBK283379]	86.5%
CN(C)CCN(C)C(=O)c1ccc(-c2cccc(N(C)C)c2)nc1N(C)C [CBK106077]	89.6%
CCCc1cc(C(=O)NC(C)(C)CN2CCCC(C)C2)[nH]n1 (stereo not shown) [CBK282467]	89.1%
O=C(O)c1ccccc1-c1ccc(-c2cc(C(=O)O)c3cc(F)ccc3n2)o1 [CBK269051]	98.8%
Cc1ccc(-c2nccnc2OCc2ccccn2)c(C)c1 [CBK106979]	90.7%
O=C(c1c[nH]c2ccccc12)C(F)(F)C(F)(F)F [CBK007222]	101%
CCn1cc(CCC(=O)NC2CCCOC2)c2ccccc21 (stereo not shown) [CBK283256]	88.7%
CC(CO)(CO)NCc1ccc(-c2ccccc2)cc1 [CBK268325C]	78.9%
CCCC(=O)NCCn1nc(-c2ccccc2F)cc1CN(C)C [CBK282000]	111%
Cc1nn(CC(C)C)c(C)c1CCC(=O)N(C)Cc1c(C)nn(-c2ccccc2)c1C [CBK295301]	108%
CC(C)(CC(=O)O)CC(=O)Nc1ccc(-c2nc3ccccc3s2)cc1 [CBK299796]	104%
NCc1ccc(CN(Cc2cccc(Cl)c2)C(=O)NC(c2ccccc2)c2ccccc2)cc1 [CBK046087C]	91.6%
COCc1ccccc1Cn1cnc2ccccc21 [CBK267496]	100%
Cc1ccc(CSc2cnc(C(C)(C)C)nc2)cc1 [CBK019832]	112%
COC(=O)N1CCN(c2ccccc2)CC1 [CBK200414]	85.5%
Cc1cc(N(C)C)nc(SCc2n[nH]c(=S)o2)n1 [CBK006887]	99.8%
Cc1nccn1CCCNC(=O)c1ccc(N2CCCC2)cc1 [CBK281589]	81.6%
CC(CC(=O)N1CCOC(c2nc(C(C)(C)C)n[nH]2)C1)n1cccc1 (stereo not shown) [CBK305214]	82.8%
O=C(O)C1CCCN(C(=O)Cc2csc(COc3ccc(Cl)cc3)n2)C1 (stereo not shown) [CBK304501]	88.1%

same assay, conditions: human, hela cells, % viability, bulk resorufin, single well

SMILES	viability at 28.5 h, 10 µM
O=C(NN=C1CCCCC1)C(O)(c1ccccc1)c1ccccc1 [CBK261783]	91.1%
